Experiments:
thrombin = target: T1, thrombin (Homo sapiens, UniProt P00734); assay: Measurement of the enzymic activity of thrombin in solution (amperometric hydrolysis of substrate); assay type: biochemical; conditions: substrate c = 0.5 mmol, 1 NIH-U of thrombin, 400 mV, HEPES 50 mM pH 7.4, KCl 0.1 M, 25° C.
T1 construct: purchased Diagnotec Liestal 100-500
Procedure: 1) A Tacusell PGP201 potentiostat, software VM1, which maintains a constant potential difference between the measuring electrode and reference electrode, is used. The measuring cell used is a glass beaker with a capacity of 25 ml or 1 ml, which can receive the 3 electrodes.
2) A platinum wire with a surface area of 34 mm^2 or 3 mm^2 is used as measuring electrode.
3) A calomel electrode (SCE) is used as reference electrode at which the potentials are measured.
4) The auxiliary electrode consists of platinum wire and serves to ensure passage of the current.
5) The measured solution is stirred by a magnetic stirrer for homogenization.
Thrombin concentration: 0.5, 1.0, 2 NIH-U/ml
Buffer: HEPES buffer, 50 mM, pH 7.4, KCl, 0.1 M
For example a 0.5 mM solution of the substrate Tos-Gly-Pro-Arg 3-chloro-4-hydroxyanilide×AcOH in HEPES buffer is prepared, as is a stock solution of thrombin with 100 NIH-U/1 ml in distilled water. 1 ml of substrate solution (c=0.5 mmol) is introduced into a 1 ml measuring cell provided with 3 electrodes of the Tacusell PGP201 potentiostat, software VM1. A cycle is allowed to run potentiodynamically from −30 to 500 mV to record the zero value (10 min). For the measurement, 10 µl of thrombin solution (final concentration 1.0 NIH-U/ml) is placed in the measuring cell, […], after mixing for 30 sec, the current is recorded potentiostatically over a time of 10 min. The measurements are carried out as duplicate determination.
FIGS. 5, 6 and 7 (μA cm^2/min, T=0-5 min, at 400 mV) show the linear cleavage rates by means of 3 substrates with different electroactive groups at a thrombin concentration of 1 NIH-U and substrate concentration c=0.5 mmol: […]

[1] = Cyclic voltammogram of the substrate (electroactivity); assay type: physicochemical; conditions: c=0.5 mM in HEPES buffer, pH=7.4, 0.1 M KCl; -30 to 600 mV; 1 ml cell, electrode 3 mm^2
Description: […] A measurement cycle can take place when the basic current affords sufficient accuracy. The basic current is subtracted from the measurement during the hydrolysis of a substrate or the recording of a profile of an electroactive compound.
2) Evaluation of the results: the currents recorded in the linearity range are, after subtraction of the basic current at the relevant potential, proportional to the concentration of the electroactive species during the hydrolysis. The liberated electroactive species, which is cleaved off by the substrate, is likewise proportional to the enzyme concentration employed.
3) A platinum electrode is used to record the cyclic voltammograms at concentrations of 0.25 mmol, 0.5 mmol and 1.0 mmol. HEPES, 50 mmol at pH 7.4, is used as buffer. FIGS. 1 and 2 show typical cyclic reversible plots for 4-amino-2-chlorophenol and 5-amino-8-hydroxyquinoline: recorded from −30 to 600 mV at 500 mV/min. These amperogenic substances preferably show a linear dependence of the current strength on the concentration at low potential in the region of 300 mV, with a high current strength. The system is in equilibrium in this case. A higher voltage of >400 mV is undesired because of interference with possible constituents in the blood, for example paracetamol. […]

Substance	Standardization: current resulting from hydrolysis of the substrate with thrombin, per cm^2 of electrode surface area in one minute (thrombin)	Electroactivity of the uncleaved substrate at 400 mV [1]
H-(D)-Chg-Gly-Arg 3-chloro-4-hydroxyanilide×2 TFA	3 μA/cm^2 of electrode	
Z-gly-pro-arg 2-chloro-4-hydroxyanilide×HCl	0.5 μA/cm^2 of electrode	
Tos-Gly-Pro-Arg 3-chloro-4-hydroxyanilide×AcOH	2 μA/cm^2 of electrode	no electroactivity

From patent US6495336B1, “Oligopeptide derivatives for the electrochemical measurement of protease activity” (Pentapharm AG, priority 2001, dated 2002)
